Assay results as given in article PMC12823633 (Cancer Chemotherapy and Pharmacology, 2026).
Where two headings read alike, the source gives them in different places.

How the values were obtained:
CYP3A4 = conditions: 1’-hydroxymidazolam
[1] = Adverse events, DDI evaluation period; type: in vivo, human (patients with solid tumors)
CYP2C9 = CYP2C9 (Homo sapiens, UniProt P11712); experiment: clinical; conditions: plasma, oral, 25 mg
[2] = midazolam 2.5 mg alone (Day −2)
[3] = midazolam 2.5 mg with TAS-115 250 mg once daily (Day 5)
[4] = After Administration of TAS-115, DDI period (N=18)
[5] = Before Administration of TAS-115 (N=18)
[6] = Entire DDI Evaluation Period (N=18)

Sequence of CYP2C9 (P11712 whole entry): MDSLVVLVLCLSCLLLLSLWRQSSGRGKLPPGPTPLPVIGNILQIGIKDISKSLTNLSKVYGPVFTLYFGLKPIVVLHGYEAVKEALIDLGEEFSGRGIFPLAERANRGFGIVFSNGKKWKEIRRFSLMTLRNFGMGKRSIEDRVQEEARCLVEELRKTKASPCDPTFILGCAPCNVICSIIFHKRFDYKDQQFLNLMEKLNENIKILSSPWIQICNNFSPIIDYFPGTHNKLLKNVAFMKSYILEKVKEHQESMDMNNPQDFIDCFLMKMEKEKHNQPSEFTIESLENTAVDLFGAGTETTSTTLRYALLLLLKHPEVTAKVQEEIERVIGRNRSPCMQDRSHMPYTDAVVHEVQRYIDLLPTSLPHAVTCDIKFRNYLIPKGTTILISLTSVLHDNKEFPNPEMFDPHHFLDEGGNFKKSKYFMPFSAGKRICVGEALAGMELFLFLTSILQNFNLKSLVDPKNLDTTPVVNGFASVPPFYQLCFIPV

Compound	AUCinf, Geometric LSM (CYP3A4; [2])	AUClast, Geometric LSM (CYP3A4; [2])	Cmax, Geometric LSM (CYP3A4; [2])	AUCinf, Geometric LSM (CYP3A4; [3])	AUClast, Geometric LSM (CYP3A4; [3])	Cmax, Geometric LSM (CYP3A4; [3])	Any >=Grade 3 TRAEs Related to Losartan [1, 4]	Any TRAEs Related to Losartan [1, 4]	Any >=Grade 3 TRAEs Related to Losartan [1, 5]	Any TRAEs Related to Losartan [1, 5]	TRAE (Grade 1 hypotension) related to losartan ([1]; DDI evaluation period, losartan administered after TAS-115)	Any >=Grade 3 TRAEs Related to Losartan [1, 6]	Any TRAEs Related to Losartan [1, 6]	AUC(0-inf) (CYP2C9)	AUC(0-t) (CYP2C9)	Cmax (CYP2C9)
OCc1ncc2n1-c1ccc(Cl)cc1C(c1ccccc1F)=NC2 [1’-Hydroxymidazolam, 1’-hydroxymidazolam]	19.92 ng·h/mL	19.33 ng·h/mL	8.195 ng/mL	20.86 ng·h/mL	20.13 ng·h/mL	8.391 ng/mL										
CCCCc1nc(Cl)c(CO)n1Cc1ccc(-c2ccccc2-c2nn[nH]n2)cc1 [Losartan, losartan, reference compound]							0 (0.0) N (%)	1 (5.6) N (%)	0 (0.0) N (%)	0 (0.0) N (%)	one patient	0 (0.0) N (%)	1 (5.6) N (%)	388 ng·h/mL	364 ng·h/mL	158 ng/mL
